# Measurements published in patent EP4741395A1, “NOVEL COMPOUND SENSITIVE TO NITROGEN MONOXIDE AND PHARMACEUTICAL COMPOSITION COMPRISING SAME” (Omniamed Co. Ltd, priority 2023, dated 2025).
# How the values were obtained:
# [1] = DAF-2 assay of NO scavenging activity (NO donor SNAP); type: biochemical; settings: DAF-2 10 µM, SNAP 100 µM, PBS, 3 hours, 37°C
# Description: NO scavenging activity of the pharmaceutical composition sensitive to nitrogen monoxide including the compound according to each of Examples 1 to 22, 29 to 31, and 33 to 35 was evaluated through a DAF-2 assay.
# Specifically, a reagent stock solution was made using DMSO (dimethyl sulfoxide) in order to prepare 5 mM of DAF-2, 100 mM of SNAP and 5 mM of the compound synthesized in each of the Examples, and for the reaction, the solution was added to a PBS (phosphate buffered saline) solution so that DAF-2, SNAP and the compound had final concentrations of 10 µM, 100 µM and the concentration of Table 1, respectively, followed by a reaction for 3 hours in a 37°C incubator.
# [2] = system: Raw 264.7 cell line; assay: NO scavenging activity in LPS-treated immune cells (Griess reagent); type: cell-based; settings: Mus musculus, RAW264.7, Raw 264.7, LPS 500 ng/mL, 24 hours, read-out: NO Scavenging Activity (%) (Mean±SD)
# [3] = system: splenocytes; assay: NO scavenging activity in Concanavalin A-treated splenocytes (Griess assay); type: cell-based, C57BL/6 mouse; settings: Mus musculus, Splenocyte, Concanavalin A 5 µg/mL, 72 hours, read-out: NO Scavenging Activity (%) (Mean±SD)
# Description: (§1) A spleen was isolated from an 8-week-old C57BL/6 mouse, and splenocytes were isolated using a physical method.
# (§2) The separated splenocytes were diluted to a concentration of 5×10^6 cells/mL in a RPMI 1640 medium including 10% FBS, 100 U/mL of penicillin and 100 µg/mL of streptomycin, and the diluted splenocytes were dispensed at 500 µL/well into a 48-well plate and 100 µL/well into a 96-well plate, and cultured for 72 hours in an incubator. The splenocytes were treated with Concanavalin A (5 µg/mL) when dispensed to induce an immune response, and herein, […] of the pharmaceutical composition including the compound according to each of the Examples was also added thereto. After 72 hours, the supernatant was collected, and the level of remaining NO was checked through a Griess assay, and calculated by the following Equation 4.
# [4] = system: IFN-γ; assay: IFN-γ reduction activity in Concanavalin A-treated splenocytes (quantitative ELISA); type: cell-based, C57BL/6 mouse; settings: Mus musculus, Splenocyte, Concanavalin A 5 µg/mL, 72 hours, read-out: IFN-γ Reduction Activity (%) (Mean±SD)
# Description: as §1, §2
# NO is one of important inflammatory mediators, and may increase the level of inflammatory cytokine. Concanavalin A (5 µg/mL), which induces an immune response in splenocytes, and the compound of each of Examples were treated in a concentration-dependent manner to check whether the level of IFN-γ, a representative inflammatory cytokine, was reduced. The supernatant was collected 72 hours after the treatment, and analyzed using a quantitative enzyme-linked immunosorbent assay (Quantitative-ELISA).
# [5] = system: splenocytes; assay: Inhibitory activity on cell proliferation in splenocytes (CCK-8 analysis); type: cell-based, C57BL/6 mouse; settings: Mus musculus, Splenocyte, Concanavalin A 5 µg/mL, 72 hours, read-out: Inhibitory Activity on Cell Proliferation (%) (Mean±SD)
# [6] = target: JAK 1 (Homo sapiens, UniProt P23458); assay: JAK Human TK kinase enzymatic radiometric assay (Eurofins), JAK 1; settings: value close to 100 indicates low JAK activity of the compound
# JAK 1, sequence (P23458 whole entry): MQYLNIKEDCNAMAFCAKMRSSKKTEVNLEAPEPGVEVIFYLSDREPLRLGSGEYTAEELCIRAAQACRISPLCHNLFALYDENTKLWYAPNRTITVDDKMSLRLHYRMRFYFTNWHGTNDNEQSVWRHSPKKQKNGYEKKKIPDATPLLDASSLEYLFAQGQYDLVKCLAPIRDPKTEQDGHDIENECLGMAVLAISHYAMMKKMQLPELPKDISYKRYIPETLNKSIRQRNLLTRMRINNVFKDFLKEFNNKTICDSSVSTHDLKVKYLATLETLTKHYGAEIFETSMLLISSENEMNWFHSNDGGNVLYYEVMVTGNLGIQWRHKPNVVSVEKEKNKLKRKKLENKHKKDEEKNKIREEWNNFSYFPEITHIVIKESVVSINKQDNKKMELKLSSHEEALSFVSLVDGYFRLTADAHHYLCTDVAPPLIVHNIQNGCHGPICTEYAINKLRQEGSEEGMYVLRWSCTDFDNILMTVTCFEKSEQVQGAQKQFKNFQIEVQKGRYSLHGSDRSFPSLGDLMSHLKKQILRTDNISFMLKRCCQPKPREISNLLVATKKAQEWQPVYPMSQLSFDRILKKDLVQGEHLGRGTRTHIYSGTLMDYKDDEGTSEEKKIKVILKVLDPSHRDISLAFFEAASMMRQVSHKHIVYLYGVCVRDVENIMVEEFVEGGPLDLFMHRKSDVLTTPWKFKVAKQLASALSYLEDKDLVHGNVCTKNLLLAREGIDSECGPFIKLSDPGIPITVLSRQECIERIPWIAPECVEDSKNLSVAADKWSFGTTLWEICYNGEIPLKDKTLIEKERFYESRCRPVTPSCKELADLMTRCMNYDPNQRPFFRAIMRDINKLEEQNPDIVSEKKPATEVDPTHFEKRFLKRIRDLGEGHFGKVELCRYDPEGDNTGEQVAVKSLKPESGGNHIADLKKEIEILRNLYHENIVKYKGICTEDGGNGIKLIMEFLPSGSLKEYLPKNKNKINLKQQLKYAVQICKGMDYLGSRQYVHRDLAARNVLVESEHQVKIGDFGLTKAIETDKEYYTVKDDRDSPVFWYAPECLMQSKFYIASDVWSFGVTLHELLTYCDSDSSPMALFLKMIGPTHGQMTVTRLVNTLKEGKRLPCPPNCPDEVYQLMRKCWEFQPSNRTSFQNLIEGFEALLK
# Description: For the compounds of the Examples, JAK activity of each of the compounds was verified using the JAK Human TK Kinase Enzymatic Radiometric Kinase Profiler Assay service provided by Eurofins Scientific.
# The activity was verified after inducing a reaction at the JAK 1, 2 and 3 active sites using radioactively labeled ATP.
# [7] = DAF-2 assay of NO scavenging activity without and with H2O2 (ROS); type: biochemical; settings: SNAP 100 µM, DAF-2 10 µM, 3 hours, 37°C; for NO Scavenging Activity (%) (Mean±SD) With H2O2: H2O2 1 mM
# Description: The pharmaceutical composition sensitive to nitrogen monoxide including the compound according to each of Examples 23 to 28 and 32 may have scavenging activity for reactive oxygen species (ROS). NO scavenging activity of the pharmaceutical composition was evaluated through a DAF-2 assay.
# Specifically, to a 100 µM solution of SNAP, the compound synthesized in each of the Examples was added at a concentration of the following Table 2, and reacted. Then 10 µM of DAF-2 was added thereto, followed by a reaction for 3 hours in a 37°C incubator.
# Additionally, a stock solution of H2O2 (10 M) was added to the reaction solution so that SNAP and H2O2 had final concentrations of 100 µM and 1 mM, respectively. Then, the compound synthesized in each of the Examples was added thereto at a concentration of the following Table 11, followed by a reaction in the same manner, and NO scavenging activity was calculated by Equation 1.
JAK 1 Activity ([6]; 0.1 nM),JAK 1 Activity ([6]; 1 nM),JAK 1 Activity ([6]; 10 nM),JAK 1 Activity ([6]; 100 nM),SMILES,NO Scavenging Activity (%) (Mean±SD) ([1]; compound 1 µM),NO Scavenging Activity (%) (Mean±SD) ([1]; compound 5 µM),NO Scavenging Activity (%) (Mean±SD) ([1]; compound 10 µM),activity at 10 µM [2],activity at 10 µM [3],activity at 10 µM [4],inhibition at 10 µM [5],NO Scavenging Activity (%) (Mean±SD) Without H2O2 ([7]; compound 1 µM),NO Scavenging Activity (%) (Mean±SD) With H2O2 ([7]; compound 1 µM),NO Scavenging Activity (%) (Mean±SD) Without H2O2 ([7]; compound 5 µM),NO Scavenging Activity (%) (Mean±SD) With H2O2 ([7]; compound 5 µM),NO Scavenging Activity (%) (Mean±SD) Without H2O2 ([7]; compound 10 µM),NO Scavenging Activity (%) (Mean±SD) With H2O2 ([7]; compound 10 µM)
97,105,102,85,"C[C@@H]1CCN(C(=O)CC#N)C[C@@H]1N(C)c1ncnc2c1ccn2C(=O)N(C)CCN(C)C(=O)Nc1cc(N(C)C)ccc1N [Example 21, N-(2-(3-(2-amino-5-(dimethylamino)phenyl)-1-methylureido)ethyl)-4-(((3R,4R)-1-(2-cyanoacetyl)-4-methylpiperidin-3-yl) (methyl)amino)-N-methyl-7H-pyrrolo[2,3-d]pyrimidine-7-carboxamide]",2.57± 1.66%,38.13 ±1.01%,66.27 ±0.14%,61.2 ± 0.15%,52.4 ± 0.67%,98.1 ± 0.03%,48.3 ± 3.72%,–,–,–,–,–,–
94,90,100,83,"C[C@@H]1CCN(C(=O)CC#N)C[C@@H]1N(C)c1ncnc2c1ccn2C(=O)N(C)CCN(C)C(=O)Nc1cc(N(C)C)ccc1NC(=O)OCc1ccc(B(O)O)cc1 [Example 23, (4-((((2-(3-(2-(4-(((3R,4R)-1-(2-cyanoacetyl)-4-methylpiperidin-3-yl)(methyl)amino)-N-methyl-7H-pyrrolo[2,3-d]pyrimidine-7-carboxamido)ethyl)-3-methylureido)-4-(dimethylamino)phenyl)carbamoyl)oxy)methyl)phenyl)boronic acid]",–,–,–,16.8 ± 0.7%,19.5 ± 0.65%,68 ± 0.45%,11.8 ± 2.08%,21.08 ±0.77%,25.76 ±6.11%,39.33 ±8.29%,64.84 ±1.94%,52.96 ±6.23%,83.96 ±0.29%
–,–,–,–,"CC[C@@H]1CN(C(=O)NCC(F)(F)F)C[C@@H]1c1cnc2cnc3c(ccn3C(=O)Nc3ccccc3N)n12 [Example 29, N-(2-aminophenyl)-8-((3R,4S)-4-ethyl-1-((2,2,2-trifluoroethyl)carbamoyl)pyrrolidin-3-yl)-3H-imidazo[1,2-a]pyrrolo[2,3-e]pyrazine-3-carboxamide]",3.68± 7.63%,1.71± 4.16%,25.18 ±3.14%,90.1 ± 0.74%,88.5 ± 0.47%,100%,78 ± 6.9%,–,–,–,–,–,–
–,–,–,–,"CC[C@@H]1CN(C(=O)NCC(F)(F)F)C[C@@H]1c1cnc2cnc3c(ccn3C(=O)Nc3ccc(N(C)C)cc3N)n12 [Example 30, N-(2-amino-4-(dimethylamino)phenyl)-8-((3R,4S)-4-ethyl-1-((2,2,2-trifluoroethyl)carbamoyl)pyrrolidin-3-yl)-3H-imidazo[1,2-a]pyrrolo[2,3-e]pyrazine-3-carboxamide]",83.14 ±2.29%,86.44 ±1.93%,88.19 ±1.75%,91.6 ± 0.68%,98.1 ± 0.09%,91.5 ± 1.37%,55 ± 8.48%,–,–,–,–,–,–
